Measurements: patent US20220054658A1, “CONJUGATES” (Transfection Holdings Limited, priority 2018, published 2022)
Entries after “also recorded” stand apart in the source; their conditions may differ.

Columns and labels:
Theileria parva = assay: Uptake in erythrocyte infected with Theileria parva (FIG. 2(b)); type: cell-based
Enterococcus faecalis = assay: Bacteria testing: uptake in Enterococcus faecalis; conditions: FIG. 2(f); 25 μM, 45 minutes, 37° C.
Description: (§1) Bacteria cultured by inoculating LB media (Thermo-Fisher) with the desired bacteria and incubating overnight at 37° C. under an atmosphere of air. The OD600 was then measured and the concentration of bacteria calculated from this. The cultures were then diluted appropriately to give a concentration of 2×10^5 cells per mL. 1 mL of this culture was placed in a 5 mL centrifuge tube then centrifuged at 13,000 rpm for 5 minutes. The supernatant was removed and replaced with 1 mL of 25 μM solution of compound in media. The cultures were incubated for 45 minutes at 37° C. The cultures were centrifuged as before, the supernatant removed and the pellet resuspended in 1 mL of PBS. The cells were washed in this manner twice more. After the final washing the pellet was resuspended in 35 μL of water and spotted onto a slide. The slide was then protected with a coverslide before the images were analysed using an Olympus UV microscope system with a Leica imaging analysis software with a FITC fluorescent filter.

C. elegans = assay: Conjugate uptake in C. elegans (dye and praziquantel conjugates, fluorescence microscopy); type: in vivo, Caenorhabditis elegans; conditions: for uptake: location of fluorescence in C. elegans: 50 μM
Description: Nematode Growth Media (NGM) plates containing C. elegans were washed with 1.0-1.5 mL of standard M9 buffer and the washes were collected in an Eppendorf tube. The liquid containing the C. elegans was then spun for 1 min at room temperature at 10,000 rpm. The supernatant was removed, and fresh M9 buffer was added (500 μL) to generate a new stock solution of M9 buffer containing the C. elegans.
A C. elegans suspension (100 μL) was added a defined amount of M9 buffer (determined by the final desired concentration of compound to be tested: 399 μL in the case of the BODIPY tagged derivatives) contained within a separate Eppendorf tube. To this was then added a 25 mM solution of the compound in DMSO (1 μL). The resulting suspension was mixed using a vortex instrument.
The resulting mixture was incubated at room temperature for 2 to 4 h. in the dark (using aluminium foil to screen the tube, which was also stored in a cabinet).
Other samples were incubated overnight. Here, OP50 bacteria (3 μL) were added to the worms for feeding purposes, and the worms were kept in the dark at 20° C.
After the incubation, the tube contents were mixed gently by hand (typically by simple rotation of the tube), so as to achieve a homogenous suspension. A sample of the suspension (250 μL) was taken and mixed with M9 buffer (500 μL). The resulting suspension was placed in a centrifuge and spun at room temperature at 10,000 rpm for 1 min. The supernatant was removed, and the washing process was repeated twice more, each time using further quantities of fresh M9 buffer (500 μL each time). After the final washing sufficient supernatant was removed so as to leave a final sample volume of approximate 30 μL.
A 1.5% agarose solution in water was pre-warmed for 60 to 90 s. in a standard household style microwave (set to Power 4). Two drops of this solution was removed and placed on a glass slide. The glass slide was covered with a second glass slide. After 1 min., the slides were slid carefully apart, with the agarose remaining on one of the slides. Onto this slide was placed an aliquot of the final C. elegans solution (15 to 20 μL). To this was added a 20 mM sodium azide solution (5 μL) to inhibit nematode mobility. Vaseline was then placed around the agarose area before replacing the second slide. The slides were not pressed together.
The nematodes were then analysed using a Zeiss Axiskop 2 Plus microscope with a Hamamatsu Orca-ER (CA 742-95) camera. The images were resolved using OpenLab on a Mac operating system.
Compounds 1-11 were evaluated after 3 h and overnight incubation at a 50 μM concentration using the general uptake protocol described for C. elegans.
In order to compare the ability of a conjugate to improve the uptake of the drug praziquantel, two praziquantel derivatives were generated. Praziquantel was tagged with a BODIPY fluorescent tag (compound 12) and incorporated into a conjugate of the invention (compound 13). Compounds 12 and 13 were evaluated at a concentration of 50 μM using the C. elegans uptake protocol described above for compounds 1-11. Microscopic readings were taken after 3, 24 and 72 h.

Escherichia coli = assay: Bacteria testing: uptake in Escherichia coli; conditions: FIG. 2(e); 25 μM, 45 minutes, 37° C.
Description: as §1

L. passim strain PRA-403 = assay: Lotmaria passim parasite uptake test; type: cell-based; conditions: 1 μM and 100 μM, room temperature, 45 min
Description: 100 mM stock solutions of BODIPY derivatives were prepared with dimethylsulfoxide (DMSO). L passim strain PRA-403 (ATCC) was cultured in modified medium for C. bombi (Tognazzo et al.). The parasite culture was centrifuged, supernatant was removed and 500 μL of L passim medium with compound (final concentration 500, 100, 10 or 1 μM for BODIPY derivatives) or DMSO (0.1%) control was added. Incubated for 45 min at room temperature.
Uptake tests were performed at 1 μM and 100 μM final concentration of CJ-BODIPY derivatives. After incubation at room temperature for 45 min, fluorescence intensities were evaluated using a microplate reader.

P. falciparum = assay: Plasmodium falciparum testing: uptake by infected and non-infected red blood cells; type: cell-based; conditions: 25 μM, 45 minutes, 37° C., synchronised stage and mix-stage cultures
Description: Compounds 1, 5, 9, 10 and 11 were tested for uptake in both synchronised stage and mix-stage cultures at 25 μM concentrations.

Staphylococcus aureus = assay: Bacteria testing: uptake in Staphylococcus aureus; conditions: FIG. 2(g); 25 μM, 45 minutes, 37° C.
Description: as §1

B. bovis Texas strain = assay: Short-term uptake test in B. bovis infected RBCs (confocal microscopy)
Description: The parasite culture was centrifuged and washed once with GIT medium. RBC's were pellet down, and 20 μl infected RBC mixture (10 μl packed infected RBC+10 μl GIT) was prepared. Then, 180 μl GIT medium with compound the compound to be evaluated (final concentration 25 μM for BODIPY derivatives and 100 μM for phiLOV derivatives) or DMSO (0.1%)/PBS control was added. The samples were incubated for 45 min at 37° C. (Samples were stained 1 μg/mL diluted Hoechst 33342 in GIT medium). After incubation, the samples were centrifuged and the pellet was washed with GIT medium (3×). A final solution of 50% haematocrit infected RBC mixture was transferred to slides to be observed by confocal laser microscopy (Nikon A1).
Uptake experiments were performed by incubating the parasite (˜5% Parasitized Erythrocytes (PPE)) with each derivative at 25 μM and 37° C. for 45 min. After incubation, the fluorescence intensities were calculated from confocal microscope images.
The phiLOV double mutant (R475G, K476C) was used to generate derivatives P11, P1, P8, and P3 which were tested for uptake in B. bovis Texas strain using phiLOV as a control. The derivatives and the control were incubated at 100 μM and 37° C. for 45 min. After incubation, the samples were analysed under confocal microscopy using Hoeschst 33342 (Thermofisher) as co-stain.

T. brucei = assay: Trypanosoma brucei testing: uptake; type: cell-based; conditions: 10-25 μM, 45 minutes, 37° C.
T. annulata = assay: Theileria annulata testing: uptake; type: cell-based; conditions: 1 hour, 37° C.
Description: T. annulata were cultured using RPMI 1640 with 10% Albumax II (Thermo-Fisher) serum. A standard hemocytometer was used to calculate the concentration of cells in the parent culture. […] For each compound and concentration to be tested, 2 mL of the culture were centrifuged at 1,000 rpm for 5 minutes. The medium was removed before the cells were resuspended in 950 μL of complete medium containing the compound to be tested at the desired concentration. This was prepared from a 100 mM stock solution of compound in DMSO. Once the cells were resuspended they were transferred to a 5 well plate (1 mL capacity per well). They were then incubated for 1 hour at 37° C. in an atmosphere of 5% CO2 in air. After the incubations were complete the contents of each well were transferred to a 10 mL centrifuge tube. Cold RPMI 1640 (Thermofisher) or HBSS added to obtain a volume of 5 mL. The suspension was then centrifuged at 1,000 rpm and at 4° C. for 5 minutes. […] After the final washing the pellet of cells was resuspended in a minimum amount of RPMI 1640 and then spotted onto a glass slide. The slide was then covered with a cover slip and analysed using Olympus BX60 UV microscope system with a Spot RT3 camera and Spot Image software with a FITC fluorescent filter.

[1] = test system: Gram-negative and Gram-positive bacteria; assay: Bacteria testing: uptake in bacterial cultures; type: cell-based; conditions: 25 μM, 45 minutes, 37° C.
[2] = test system: human embryonic kidney cells (HEK293); assay: Cytotoxicity against HEK293 cells (CellTitre-Glo); type: cell-based; conditions: 100 μM, HEK293, 24 hours
Description: A sample compound was incubated at 100 μM with human embryonic kidney cells (HEK293) in Greiner 384 cell star plates for 24 hours before adding CellTitre-Glo® (Promega), an indicator of cell viability giving a luminescent output. In this assay, compounds showing greater than 40% cytotoxicity over two test runs at 100 μM are deemed to have shown cytotoxicity.

Structure (SMILES)	accumulation in Theileria parva infected erythrocyte (Theileria parva)	uptake by Enterococcus faecalis (Enterococcus faecalis)	uptake: location of fluorescence in C. elegans (C. elegans; 3 h incubation)	uptake: location of fluorescence in C. elegans (C. elegans; 20 h / overnight incubation)	distribution in C. elegans (C. elegans; FIG. 2(h), fluorescence microscopy)	uptake by Escherichia coli (Escherichia coli)	uptake in L. passim (fluorescence intensity, microplate reader) (L. passim strain PRA-403)	uptake by infected and non-infected red blood cells (P. falciparum)	uptake by Staphylococcus aureus (Staphylococcus aureus)	uptake compared to compound 1 (% less) (B. bovis Texas strain; 25 μM, 37° C., 45 min, ~5% PPE) [%]	uptake by non-infected erythrocytes (B. bovis culture) (B. bovis Texas strain; FIG. 2(a))	uptake in T. brucei (T. brucei)	uptake in T. annulata (T. annulata)	uptake in bacterial cultures [1]	outcome in the cytotoxicity screen [2]	cytotoxicity ([2]; CellTitre-Glo, greater than 40% deemed cytotoxic) [%]
CC1=CC(C)=[N+]2C1=Cc1ccc(CCCn3cc(CCNC(=O)/C=C/NC(=O)[C@H](O)C(C)(C)CO)nn3)n1[B-]2(F)F [Compound 5, (R,E)-N-((((3-[4,4-Difluoro-5,7-dimethyl-4-bora-3a,4a-diaza-s-indacene-3-yl]propyl)-1H-1,2,3-triazol-4-yl)ethylamino)-3-oxoprop-1-enyl)-2,4-dihydroxy-3,3-dimethylbutanamide]	seen to accumulate within the parasite	uptake of the conjugate by the organism	small amounts of compound 5 were present in the gut cells, and the gut lumen of the larval stages, as well as in the pharynx, gut lumen and gut cells of adult nematodes; also recorded: not detected in the embryos	fluorescence remained in the pharynx, gut cells and gut lumen of both the larval and adult stages; also recorded: Fluorescence was also detected in the early stage of egg development, but not in the embryos	localised with the digestive track of C. elegans	uptake of the conjugate by the organism	relatively low uptake	selectively taken up by infected red blood cells; also recorded: accumulated within the parasite itself; also recorded: Non-infected erythrocytes do not take up the conjugate	uptake of the conjugate by the organism	30	Non-infected erythrocytes do not take up the conjugate	taken up by T. brucei and forms small vesicles all over the trypanosome body, whilst not accumulating neither in the lysosome nor in the nucleus, but rather in a vesicle between the flagellar pocket and the lysosome; also recorded: taken up by T. brucei and forms small vesicles all over the trypanosome body	taken up by T. annulata; also recorded: selectively accumulated within the intracellular parasite	Uptake was seen both in the case of Gram-negative and Gram-positive bacteria		
CC1(C)OCC(C)(C)C(C(=O)N/C=C/C(=O)NCCCCCO[Si](c2ccccc2)(c2ccccc2)C(C)(C)C)O1 (stereo not shown)															inactive in the screen	3.7±0.6
